What is called IC50 is the midpoint of a concentration-inhibition curve. A low value points to greater potency in that assay. The half-life is the time needed for the level to fall by half in the phase considered. Read a low half-life as rapid decline.

The text below walks through data of ChEMBL document CHEMBL1153200, “Discovery of 3,6-dihydro-2H-pyran as a morpholine replacement in 6-aryl-1H-pyrazolo[3,4-d]pyrimidines and 2-arylthieno[3,2-d]pyrimidines: ATP-competitive inhibitors of the mammalian target of rapamycin (mTOR)” (Bioorg Med Chem Lett, 2010).

Series [1] can be described thus: Selectivity ratio, IC50 for PI3Kalpha to IC50 for human mTOR.
Series [2] concerns the target Phosphatidylinositol 4,5-bisphosphate 3-kinase catalytic subunit alpha isoform (Homo sapiens, UniProt P42336). Description: Inhibition of PI3Kalpha by fluorescence polarization assay.
Series [3] addresses Serine/threonine-protein kinase mTOR (Homo sapiens, UniProt P42345). Description: Inhibition of mTOR in HEK293 cells by DELFIA assay. Type of series: cell-based.
A further series concerns LNCaP. The series is described as follows: Cytotoxicity against human LNCAP cells after 1 to 2 hrs by MTS assay. Type of series: functional, cell-based. Background: Formazan colour is commonly taken as a measure of viable cells.
The nature of series [4]: Half life in nude mouse microsomes. Type of series: ADME, Microsome.

Structures are written as SMILES. Where only a bound is given, the exact number is not on record here.

Phosphatidylinositol 4,5-bisphosphate 3-kinase catalytic subunit alpha isoform, sequence (P42336 whole entry, canonical isoform): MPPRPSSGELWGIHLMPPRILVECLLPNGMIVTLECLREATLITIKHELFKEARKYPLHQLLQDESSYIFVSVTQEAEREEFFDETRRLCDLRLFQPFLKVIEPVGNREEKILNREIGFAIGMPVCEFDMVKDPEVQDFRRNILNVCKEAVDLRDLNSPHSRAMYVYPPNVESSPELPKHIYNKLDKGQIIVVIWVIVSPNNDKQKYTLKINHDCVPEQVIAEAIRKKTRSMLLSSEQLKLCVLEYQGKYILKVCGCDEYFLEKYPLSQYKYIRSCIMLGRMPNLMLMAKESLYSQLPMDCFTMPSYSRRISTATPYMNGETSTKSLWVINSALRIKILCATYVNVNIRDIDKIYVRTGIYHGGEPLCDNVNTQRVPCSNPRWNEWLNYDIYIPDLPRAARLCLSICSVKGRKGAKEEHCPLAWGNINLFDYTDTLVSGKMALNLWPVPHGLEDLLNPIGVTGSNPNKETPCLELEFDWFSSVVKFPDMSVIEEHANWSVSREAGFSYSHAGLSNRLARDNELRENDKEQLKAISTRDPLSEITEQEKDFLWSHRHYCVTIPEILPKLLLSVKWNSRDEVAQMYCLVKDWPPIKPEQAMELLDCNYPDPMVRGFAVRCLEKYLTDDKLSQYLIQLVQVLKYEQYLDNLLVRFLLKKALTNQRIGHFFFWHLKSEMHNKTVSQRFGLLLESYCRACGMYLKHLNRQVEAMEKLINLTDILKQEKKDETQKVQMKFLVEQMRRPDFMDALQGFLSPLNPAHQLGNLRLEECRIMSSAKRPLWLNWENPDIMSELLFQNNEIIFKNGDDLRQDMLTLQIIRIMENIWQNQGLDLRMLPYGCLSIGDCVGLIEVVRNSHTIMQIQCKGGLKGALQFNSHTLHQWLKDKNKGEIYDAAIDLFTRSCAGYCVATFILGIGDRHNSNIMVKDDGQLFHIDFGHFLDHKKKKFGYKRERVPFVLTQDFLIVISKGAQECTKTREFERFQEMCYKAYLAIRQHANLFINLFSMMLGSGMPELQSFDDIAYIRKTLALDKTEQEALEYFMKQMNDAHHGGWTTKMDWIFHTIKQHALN

With `Oc1cccc(-c2nc(C3=CCOCC3)c3cnn(-c4ccccc4)c3n2)c1`, the Ratio IC50 in series [1] came out at 3.3. The IC50 in series [2] was 59 nM; in series [3], 18 nM.
As for `O=C(Nc1ccncc1)Nc1ccc(-c2nc(C3=CCOCC3)c3sccc3n2)cc1`, the Ratio IC50 in series [1] was 15. Also, the values for the IC50 (in series [2]; in series [3]; with LNCaP) were 27 nM, 1.8 nM and 200 nM, respectively. Further, the half-life in series [4] was more than 30 min.
On to `O=C(NCCF)Nc1ccc(-c2nc(N3CCOCC3)c3cnn(CC(F)(F)F)c3n2)cc1`, for which the Ratio IC50 in series [1] is 525. Besides, the IC50 in series [3] (hek293) is 0.6 nM; with LNCaP, 60 nM. The half-life in series [4] amounted to 22 min.
Taken in the same sequence, the figures for `CNC(=O)Nc1ccc(-c2nc(N3CCOCC3)c3cnn(CC(F)(F)F)c3n2)cc1` were 194, 1 nM, 230 nM and 26 min.
On to `O=C(Nc1ccc(-c2nc(C3=CCOCC3)c3sccc3n2)cc1)Nc1cccnc1`, for which the Ratio IC50 in series [1] came to 32. Moreover, the IC50 in series [2] was determined as 35 nM; in series [3], 1.1 nM; in the series on LNCaP, 210 nM. The compound further displayed a half-life in series [4] of more than 30 min.
Turning to `O=C(NCCF)Nc1ccc(-c2nc(C3=CCOCC3)c3sccc3n2)cc1`, the Ratio IC50 in series [1] was determined as 560. The IC50 in series [2] amounted to 1370 nM; in series [3], 2.5 nM; with LNCaP, 1300 nM. Besides, in series [4], the half-life was 6 min.
For `O=C(NCCF)Nc1ccc(-c2nc(C3=CCOCC3)c3cnn(CC(F)(F)F)c3n2)cc1`, in series [1], the Ratio IC50 stood at 2300. For the same compound, the IC50 came to 1 nM in series [3] and 72 nM with LNCaP. In series [4], this compound gave a half-life of more than 30 min.
As to `O=C(Nc1ccccc1)Nc1ccc(-c2nc(C3=CCOCC3)c3sccc3n2)cc1`, the Ratio IC50 in series [1] is 4. For the same compound, the figures for the IC50 (in series [2]; in series [3]; in the series with LNCaP) were 28 nM, 7.2 nM and 800 nM, respectively. The compound further came in with a half-life in series [4] of 21 min.
Turning to `CCNC(=O)Nc1ccc(-c2nc(C3=CCOCC3)c3sccc3n2)cc1`, in series [1], the Ratio IC50 was found to be 319. Besides, the IC50 in series [2] worked out at 1050 nM; in series [3], 3.3 nM; in the series with LNCaP, 470 nM. This compound also gave a half-life in series [4] of 3 min.
With `O=C(Nc1ccc(-c2nc(N3CCOCC3)c3cnn(CC(F)(F)F)c3n2)cc1)Nc1cccnc1`, the Ratio IC50 in series [1] is 50. The IC50 in series [3] is 0.2 nM; in the series with LNCaP it was less than 27 nM. For the same compound, the half-life in series [4] is more than 30 min.
For the compound `Oc1cccc(-c2nc(C3CCOCC3)c3cnn(-c4ccccc4)c3n2)c1`, the Ratio IC50 in series [1] amounted to 2. For the same compound, the IC50 in series [2] amounted to 1010 nM; in series [3], 500 nM.
Take `O=C(Nc1ccc(-c2nc(C3=CCOCC3)c3cnn(CC(F)(F)F)c3n2)cc1)Nc1cccnc1`: the Ratio IC50 in series [1] is 66. Also, the results for the IC50 (in series [3]; in the series on LNCaP) were 1 nM and 380 nM, respectively. The half-life in series [4] is 25 min.
Consider `CNC(=O)Nc1ccc(-c2nc(C3=CCOCC3)c3cnn(CC(F)(F)F)c3n2)cc1`, for which, in series [1], the Ratio IC50 turned out to be 100. The IC50 in series [2] was 200 nM; in series [3], 2 nM; in the series with LNCaP it was 260 nM. In series [4], this compound gave a half-life of 13 min.
